Legend:
[1] = system: Burkitt lymphoma CA46 cells; test: Growth inhibition of Burkitt lymphoma CA46 cells; type: cell-based; settings: Homo sapiens, CA46, read-out: IC50 in CA46 cells
[2] = system: tubulin; settings: cited from earlier work
[3] = system: tubulin; settings: highest concentration examined 100 µM; cited from earlier work
[4] = system: HeLa cells; test: Annexin-V/PI flow cytometry; type: cell-based, human; settings: 24 or 48 h
[5] = system: cdc25C; test: Western blot in HeLa cells; type: cell-based, human; settings: 25 µM; for cdc25c expression: 48 h; for cdc25C forms: 24 h
[6] = system: HeLa cells; test: Immunofluorescence of the microtubule network; type: cell-based, human; settings: 25 µM, 24 h
[7] = system: PBL not stimulated with PHA; test: Cytotoxicity for resting peripheral blood lymphocytes; type: cell-based; settings: Homo sapiens, Lymphocyte, read-out: IC50 PBLresting
[8] = system: Mcl-1; test: Western blot in HeLa cells; type: cell-based, human; settings: 25 µM, 24 h
[9] = system: Bcl-2; test: Western blot in HeLa cells; type: cell-based, human; settings: 25 µM, 24 h
[10] = system: γ-H2A.X; test: Western blot in HeLa cells; type: cell-based, human; settings: 25 µM, 24 h
[11] = system: cyclin B; test: Western blot in HeLa cells; type: cell-based, human; settings: 25 µM
[12] = system: aurora kinase A; test: Western blot in HeLa cells; type: cell-based, human; settings: 25 µM, 24 h

| Structure (SMILES) | cdc25c expression [5] | cells with induced spherical morphology (microtubule rearrangement) [6] | IC50 [7] | Mcl-1 band [8] | expression of γ-H2A.X [10] | cyclin B expression ([11]; 24 h) | cyclin B expression ([11]; 48 h) | aurora kinase levels [12] | also measured |
| --- | --- | --- | --- | --- | --- | --- | --- | --- | --- |
| COc1ccc(/C=C\c2cc(OC)c(OC)c(OC)c2)cc1O [CA-4, combretastatin A-4] | – | – | – | – | – | – | – | – | IC50 [1]: 0.02 ± 0.007 µM |
| COc1ccc2c(c1OC)C(=O)O[C@@H]2[C@H]1c2c(cc3c(c2OC)OCO3)CCN1C [Compound 1, (S)-6,7-dimethoxy-3-((R)-4′-methoxy-6′-methyl-5′,6′,7′,8′-tetrahydro[1,3]dioxolo-[4,5]isoquinolin-5′-yl)isobenzofuran-1(3H)-one] | – | – | – | – | – | – | – | – | inhibition of [3H]colchicine binding to tubulin [2]: without success; inhibition of colchicine binding (fluorescence) [3]: no activity |
| COc1ccc2c(c1OC)C(=O)O[C@@H]2[C@H]1c2c(c(Br)c3c(c2OC)OCO3)CCN1C [Compound 2, 9′-bromonoscapine, reference compound] | strongly decreased | 70–80% | > 200 µM | strongly reduced | – | – | – | – | annexin-V positive cells (apoptosis) [4]: slightly more active than the other three compounds; inhibition of colchicine binding (fluorescence) [3]: inhibition of colchicine binding; Bcl-2 expression [9]: reduced |
| COc1ccc2c(c1OC)C(=O)O[C@@H]2[C@H]1c2c(c(C)c3c(c2OC)OCO3)CCN1C [Compound 3, 9′-Methylnoscapine] | – | 70–80% | > 200 µM | strongly reduced | marked increase | increased expression | disappearance | increased | Bcl-2 expression [9]: reduced |
| COc1ccc2c(c1OC)C(=O)O[C@@H]2[C@H]1c2c(c(-c3ccccc3)c3c(c2OC)OCO3)CCN1C [Compound 4, 9′-Phenylnoscapine] | strongly decreased | – | > 200 µM | strongly reduced | marked increase | increased expression | disappearance | increased | cdc25C forms [5]: slower migrating forms |
| COc1ccc2c(c1OC)C(=O)O[C@@H]2[C@H]1c2c(c(-c3ccc(C)cc3)c3c(c2OC)OCO3)CCN1C [Compound 5, 9′-(4-Methylphenyl)-noscapine] | strongly decreased | – | > 200 µM | – | marked increase | increased expression | disappearance | increased | cdc25C forms [5]: slower migrating forms |
| COc1ccccc1-c1c2c(c(OC)c3c1OCO3)[C@H]([C@H]1OC(=O)c3c1ccc(OC)c3OC)N(C)CC2 [Compound 6, 9′-(2-Methoxyphenyl)-noscapine] | – | – | > 200 µM | – | – | – | – | – | – |
| COc1cccc(-c2c3c(c(OC)c4c2OCO4)[C@H]([C@H]2OC(=O)c4c2ccc(OC)c4OC)N(C)CC3)c1 [Compound 7, 9′-(3-Methoxyphenyl)-noscapine] | – | 70–80% | > 200 µM | – | – | – | – | – | – |
| COc1ccc(-c2c3c(c(OC)c4c2OCO4)[C@H]([C@H]2OC(=O)c4c2ccc(OC)c4OC)N(C)CC3)cc1 [Compound 8, 9′-(4-Methoxyphenyl)-noscapine] | – | – | > 200 µM | – | – | – | – | – | – |
| COc1ccc2c(c1OC)C(=O)O[C@@H]2[C@H]1c2c(c(-c3ccc4ccccc4c3)c3c(c2OC)OCO3)CCN1C [Compound 9, 9′-(2-Naphthyl)-noscapine] | – | – | > 200 µM | – | – | – | – | – | – |
